The text below walks through data of US11926826B2, “Twist signaling inhibitor compositions and methods of using the same” (City of Hope, priority 2016, dated 2024).

Data set [1] deals with TWIST. The data set can be described thus: TWIST knockdown after MSN delivery of siRNA in ovarian cancer cell lines. Conditions: A2780R and Ovcar8; loaded onto MSNs. Format: cell-based. As to the method:
MSN design and delivery. Mesoporous silica nanoparticles (MSNs) were synthesized utilizing the sol-gel method as described previously. First, 250 mg 95% cetyltrimethylammonium bromide (CTAB) was dissolved in 120 ml of water with 875 μl 2M sodium hydroxide solution, at 80° C. Next, 1.2 ml of 98% tetraethylorthosilicate was added. After 15 min, 300 μl of 42% 3-(trihydroxysilyl) propyl methylphosphonate was added, and the mixture was stirred 2 hr. Particles were collected using centrifugation and washed with methanol. Acidic methanol was then used to remove any remaining CTAB surfactants. Zeta potential at 50 μg/mL was 43.75 mV [14]. All chemicals were obtained from Aldrich (St. Louis, MO). Particles were ˜120 nm in diameter, with 2.5 nm pores. Low molecular weight (1.8 kD branched polymer) polyethyleneimine (PEI) was electrostatically attached to the particle surface to provide a positive change to attract negatively charged siRNA [21]. To complex siRNA for in vitro experiments, 10 μl siRNA at 10 μM was mixed with 70 ul MSNs at 500 μg/ml and 20 μl water, and the mixture was incubated overnight at 4° C. on a roller. The following day, 100 μl of the MSN-siRNA complexes was added to each well of a 6-well plate containing 1900 μl normal medium.
(§1) Western Blotting. Following siRNA treatment, cells were pelleted and lysed in RIPA buffer. Protein concentration was determined by BCA assay (Thermo Fisher). Following SDS-PAGE, protein was transferred to Amersham PVDF membrane (Genesee Scientific) using a BioRad Trans-Blot SD semi-dry transfer unit. Blots were then blocked in milk for one hour at room temperature or overnight at 4° C. Incubation with primary antibody took place for one hour at room temperature or overnight at 4° C. Antibodies were diluted in 5% milk, with 0.1-0.2% Tween-20. Antibodies used were TWIST 2c1a (Santa Cruz Biotechnology, Dallas, TX) at 1:250-1:500 dilution, β-Actin, A1978 (Sigma Aldrich, St. Louis, MO) at 1:2500-1:5000 dilution; and Horseradish Peroxidase (HRP) conjugated anti-mouse secondary antibodies. […]

In the next data set the test system is N-Cadherin mRNA. Put plainly: qPCR after YTZ3-15 delivery of siTwist in SUM 1315: N-Cadherin. The class given is cell-based, human. Conditions: delivered via YTZ3-15; after seven days. The procedure: Cell Culture, Transfection, and Stable Cell Line Production. SUM 1315 breast cancer cells were obtained from ATCC (Manassas, VA). Cells were maintained at 37° C., 5% CO2, and 90% humidity in a tissue culture incubator. Media for SUM 1315 cells consisted of a 50-50 mixture of DMEM and F12 media, supplemented with 5 μg/ml insulin, 10 ng/ml EGF, 5% fetal bovine serum, and 1% penicillin/streptomycin. Cells were passaged using 0.25% trypsin (Genesee Scientific, San Diego, CA) every 2-3 days as they reached confluency. […]
Quantitative PCR. […] RNA quantity and quality was measured and analyzed (with 260/280 nm and 260/230 nm spectra measurements) using a NanoDrop ND-1000 (Thermo Fisher Scientific, Waltham, MA). […] Quantitative RT-PCR was performed in quadruplicate using Maxima SYBR Green Master Mix (Thermo Fisher Scientific, Waltham, MA) in 25 μl reactions. […] Data were analyzed using Bio-Rad iQ5 software using the 2^−ΔΔ^Ct method and normalized to Actin. […]
Background: Quantitative PCR measures a nucleic acid by following its amplification.

The test system of data set [2] is TWIST. Put plainly: TWIST knockdown after Lipofectamine 2000 transfection in A2780R (western blot). The class given is cell-based. As to conditions: over three days post transfection. As to the method:
Cell Culture. A2780R and all derivatives of Ovcar8 were grown in RPMI 1640 (Genesee Scientific, San Diego, CA) in a tissue culture incubator at 37° C., 5% CO2, and 90% humidity. Growth medium was supplemented with 10% fetal bovine serum and 1% penicillin/streptomycin. Cells were passaged every 2-4 days using 0.25% trypsin (Genesee Scientific). Where indicated, cells were transfected with Lipofectamine 2000 (Thermo Fisher, Waltham, MA) according to the manufacturer's instructions. A2780R cells are a cisplatin resistant derivative of A2780.
as §1
In general terms: In western blotting, separated proteins are transferred to a membrane and probed.

Consider “si419: anti-TWIST siRNA; passenger 5′-GGACAAGCUGAGCAAGAUU-3′ (SEQ ID No: 1), guide 5′-AAUCUUGCUCAGCUUGUCCUU-3′ (SEQ ID No: 2) (listed as RNA, chemistry not fully specified)”, for which the TWIST knockdown result in the data set on TWIST [1] is reported as “robust TWIST knockdown lasting one week post transfection”. Moreover, the “N-Cadherin mRNA decrease” value in the data set with N-Cadherin mRNA was “approximately 90%”. Also, the TWIST expression result in the data set on TWIST [2] is reported as “completely inhibit TWIST expression”.
